Laboratory results from US20250152750A1 (Cancer Research Technology Limited, priority 2022, published 2025).
“Also recorded” adds a separate entry of the source.

Legend:
SK-MEL-103 xenografts = assay: Ex vivo IVIS fluorescence imaging of untreated and Palbociclib treated xenografts; assay type: in vivo, mice; conditions: 200 μL of 1 mg/mL tail vein, 6 h, p=0.0438
Protocol: All mice were treated in strict accordance with the local ethical committee (University of Cambridge License Review Committee) and the UK Home Office guidelines. Tumour xenografts were established using SK-MEL-103. Cells were trypsinised, counted with a haemocytometer, and injected subcutaneously (10^6 cells in a volume of 100 μL per dorsolateral flank) in 8- to 10-week-old athymic nude female mice (Crl:NU(NCr)-Foxn1^nu) purchased from Charles River Laboratories. Tumour volume was measured every 2 days with a caliper and calculated as V=(a×b 2)/2 where a is the longer and b is the shorter of two perpendicular diameters. […]
An IVIS Spectrum Imaging System (Perkin Elmer Inc) was used for ex vivo fluorescence imaging. For ex vivo imaging, mice were sacrificed by cervical dislocation and organs and tumour xenografts were analysed immediately after harvesting. ICG was detected using an excitation wavelength of 710-740 nm and emission bandpass from 810-830 nm. […] Fluorescence imaging quantification was performed by Living Image 3.2 software (Perkin Elmer Inc). […] Fluorescence activity is measured in photons per second per square centimetre per steradian (p/s/cm^2/sr). […]
See Examples—part A. Fluorescence activity is measured as average Radiant Efficiency with the equation of [p/s/cm2/sr]/[μW/cm2].

[1] = tested on: senescent cells (multiple models of senescence); assay: Flow cytometry accumulation in control and senescent cells; assay type: cell-based, human; conditions: 12-16 hours exposure
Protocol: LSR Fortessa (BD-Becton Dickinson) was used for flow cytometry analysis. For cyanine dye nanoparticle and small molecule studies, 6 well plates were used and seeded 200,000 cells per well. […] After this, cells were trypsinised and re-suspended in PBS buffer with 2% FBS. At least 10,000 live events were collected for each condition. DAPI (Sigma) was added to exclude dead cells. The analysis of all flow cytometry data was performed using FlowJo v10 (Treestar, OR). Unstained control and senescent cells were used as reference for each independent experiment. For ICG the 640 nm laser was used with an emission window of 750-810 nm. For the cyanine dye nanoparticle, the 640 nm laser was used with an emission window of 708-753 nm.

[2] = tested on: uptake of cyanine dye nanoparticles in control and senescent cells; assay: Endocytosis analysis by confocal microscopy with endocytosis pathway inhibitors; assay type: cell-based; conditions: inhibitor 1 h before nanoparticles, 12-16 h
Protocol: Cells were trypsinized and seeded in flat-bottom μ-clear 96-well plates (Greiner Bio-One, #655087) at a density of 3,500-5,000 control and 4,000-6,000 senescent cells/well. Once the cells were attached, culture medium was changed to DMEM without FBS and exposed to a number of different inhibitors for 1 h. […] The cells were washed 3x with PBS for 5 min. Specific organelle stain LysoTracker Green DND-26 (Cell Signaling Technology, FM8783) was used according to the manufacturers protocol. For nuclei staining, Hoechst at 0.1 μg/mL in PBS was added 10 min prior to analysis.

For `CC1(C)C(/C=C/C=C/C=C/C=C2\N(CCCCS(=O)(=O)O)c3ccc4ccccc4c3C2(C)C)=[N+](CCCCS(=O)(=O)[O-])c2ccc3ccccc3c21` [ICG, indocyanine green], the “ICG emission in untreated (control) vs Palbociclib treated tumours” value (SK-MEL-103 xenografts) was “accumulation in untreated tumours as opposed to senescent tumours; also recorded: significantly higher signal in the control tumours” and the “accumulation in senescent cells compared to controls” value [1] was “accumulation of ICG”.
`O=C1NC(=NS(=O)(=O)c2cccc3ccccc23)S/C1=C\c1ccc(Br)cc1` [Pitstop 2] was tested, and the “effect of inhibitor on uptake of cyanine dye nanoparticles” value (shortened to “effect of inhibitor”) [2] was “significant inhibition; also recorded: significant inhibitor of endocytosis”.
In the case of `CCN(CC)CCCC(C)Nc1ccnc2cc(Cl)ccc12` (centres unmarked) [chloroquine], the “effect of inhibitor” value [2] is reported as “significantly enhances” and the “effect of inhibitor” value ([2]; listed as Chloroquine) is reported as “more dramatic increase”.
`O=C(N/N=C/c1cc(O)c(O)cc1O)c1cc2ccccc2cc1O` [dynago4a] was tested, and the “effect of inhibitor” value [2] was “significantly inhibited” and the “effect of inhibitor” value ([2]; listed as dyngo4a) was “significant inhibition”.
With `CN1CCN(CCCN2c3ccccc3Sc3ccc(Cl)cc32)CC1` [prochloroperazine] the “effect of inhibitor” value [2] was “not inhibited”.
